Active and inactive are the calls of the source. No cut-off for these calls is given here.
How the values were obtained:
[1] = Cytotoxicity against BAECs assessed as decrease in total intracellular LDH content at 15 mM measured after 3 hrs by LDH assay relative to vehicle control; type: cell-based, Bos taurus; design: scale not given: the % may be the effect or the level left; settings: cattle, baec, 15000 µM
Aorta [2] = assay: Potentiation of SNP-induced vasorelaxant activity in Sprague-Dawley rat endothelium-intact aortic rings assessed as reduction in L-phenylephrine hydrochloride-induced contraction at 200 uM relative to SNP; type: functional
Aorta [3] = assay: Vasoprotective activity against oxidative stress-induced impairment of ACh-stimulated vasorelaxation in Sprague-Dawley rat endothelium-intact aortic rings assessed as reduction in L-phenylephrine hydrochloride-induced contraction preincubated for 10 to 20 mins in presence of xanthine-xanthine oxidase system prior to L-phenylephrine hydrochloride addition; type: functional
Aorta [4] = assay: Vasoprotective activity against oxidative stress-induced impairment of ACh-stimulated vasorelaxation in Sprague-Dawley rat endothelium-intact aortic rings assessed as reduction in L-phenylephrine hydrochloride-induced contraction preincubated for 10 to 20 mins in presence of xanthine-xanthine oxidase system at 200 uM prior to L-phenylephrine hydrochloride addition relative to ACh; type: functional
Aorta [5] = assay: Protection against NADPH-induced superoxide-mediated tissue damage in Sprague-Dawley rat endothelium-intact aortic rings assessed as inhibition of protein carbonyl formation at 200 uM pre-incubated for 30 mins in presence of DTC prior to NADPH addition measured after 60 mins using 7-hydrazino-4-nitrobenzo-2,1,3-oxadiazole by fluorimetric analysis; type: functional
Aorta [6] = assay: Protection against NADPH-induced superoxide-mediated tissue damage in Sprague-Dawley rat endothelium-intact aortic rings assessed as decomposition of methyl radical adduct preincubated for 30 mins at 200 uM in presence of DTC prior to NADPH addition after 60 mins followed by renewal of media with NADPH-compound mixture measured after 4 days by EPR spectroscopy relative to control; type: functional
Aorta [7] = assay: Protection against superoxide-mediated tissue damage in Sprague-Dawley rat endothelium-intact aortic rings assessed as methyl radical adduct formation preincubated for 30 mins at 200 uM in presence of DTC measured after 4 days by EPR spectroscopy; type: functional
[8] = Cytotoxicity against BAEC assessed as decrease in total intracellular LDH content at 15 mM measured after 1 hr by LDH assay relative to vehicle-treated control; type: cell-based, Bos taurus; design: scale not given: the % may be the effect or the level left; settings: cattle, 15000 µM
Aorta [9] = assay: Toxicity in Sprague-Dawley rat endothelium-intact aortic rings at 15 mM measured after 20 mins; settings: 15000 µM
Aorta [10] = assay: Protection against NADPH-induced superoxide-mediated tissue damage in Sprague-Dawley rat endothelium-intact aortic rings assessed as methyl radical adduct formation pre-incubated for 30 mins at 200 uM in presence of DTC prior to NADPH addition measured after 60 mins followed by renewal of media with NADPH-compound mixture measured after 20 mins in presence of DPI by EPR spectroscopy; type: functional
[11] = Antioxidant activity assessed as DPPH scavenging activity measured after 3 mins by spectrophotometric method; type: physicochemical
[12] = Antioxidant activity assessed as AAPH free radical scavenging activity measured as trolox equivalent by TRAP assay; type: physicochemical
[13] = Antioxidant activity assessed as inhibition of […]-xanthine oxidase system-mediated superoxide formation measured over 7 mins by lucigenin-based chemiluminescence analysis; type: physicochemical
[14] = target: Xanthine dehydrogenase/oxidase (Homo sapiens, UniProt P47989); assay: Inhibition of xanthine oxidase (unknown origin) using xanthine as substrate assessed as inhibition of uric acid formation at 1 to 100 uM after 30 mins by spectrophotometric method; settings: 0.5 h
Sequence of Xanthine dehydrogenase/oxidase (P47989 whole entry): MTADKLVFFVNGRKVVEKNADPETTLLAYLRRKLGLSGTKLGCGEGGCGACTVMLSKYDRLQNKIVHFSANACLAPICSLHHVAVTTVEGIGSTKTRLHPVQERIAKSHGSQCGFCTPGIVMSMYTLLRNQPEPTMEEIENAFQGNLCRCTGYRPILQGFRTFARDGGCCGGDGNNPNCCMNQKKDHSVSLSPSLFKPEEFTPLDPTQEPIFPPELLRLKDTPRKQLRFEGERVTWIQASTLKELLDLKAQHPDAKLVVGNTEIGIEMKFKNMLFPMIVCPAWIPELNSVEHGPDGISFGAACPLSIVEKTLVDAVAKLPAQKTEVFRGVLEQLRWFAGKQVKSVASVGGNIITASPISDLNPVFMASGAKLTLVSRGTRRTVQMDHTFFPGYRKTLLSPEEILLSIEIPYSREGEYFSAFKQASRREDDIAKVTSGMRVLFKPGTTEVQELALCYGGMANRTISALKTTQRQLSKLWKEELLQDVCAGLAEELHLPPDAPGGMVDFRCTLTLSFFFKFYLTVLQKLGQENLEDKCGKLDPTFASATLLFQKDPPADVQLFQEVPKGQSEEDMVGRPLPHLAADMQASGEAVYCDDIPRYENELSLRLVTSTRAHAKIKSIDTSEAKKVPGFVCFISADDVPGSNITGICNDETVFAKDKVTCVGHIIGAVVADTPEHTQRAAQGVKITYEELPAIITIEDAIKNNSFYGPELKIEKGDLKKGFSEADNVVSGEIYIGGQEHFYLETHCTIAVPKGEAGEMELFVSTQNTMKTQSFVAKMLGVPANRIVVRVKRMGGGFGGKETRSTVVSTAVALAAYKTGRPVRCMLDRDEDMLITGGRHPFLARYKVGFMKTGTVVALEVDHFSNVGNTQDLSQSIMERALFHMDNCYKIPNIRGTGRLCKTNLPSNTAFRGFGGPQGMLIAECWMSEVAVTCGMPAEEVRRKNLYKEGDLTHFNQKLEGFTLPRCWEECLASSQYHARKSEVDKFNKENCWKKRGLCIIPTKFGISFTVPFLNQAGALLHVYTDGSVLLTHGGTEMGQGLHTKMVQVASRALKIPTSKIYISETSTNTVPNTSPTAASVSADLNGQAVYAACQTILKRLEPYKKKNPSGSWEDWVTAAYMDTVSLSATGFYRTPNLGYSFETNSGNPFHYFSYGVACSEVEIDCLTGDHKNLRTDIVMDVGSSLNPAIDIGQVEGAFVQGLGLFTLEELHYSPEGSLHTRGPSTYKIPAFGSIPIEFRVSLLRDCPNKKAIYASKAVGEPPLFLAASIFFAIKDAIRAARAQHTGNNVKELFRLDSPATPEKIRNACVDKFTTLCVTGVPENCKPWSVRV

A549 [15] = assay: Cytotoxicity against human A549 cells assessed as reduction in cell viability measured after 48 hrs by FMCA assay; type: cell-based; settings: A549, 48 h
A549 [16] = assay: Cytotoxicity against human A549 cells assessed as reduction in cell viability measured after 48 hrs by luminescence-based ATP assay; settings: A549, 48 h
A549 [17] = assay: Cytotoxicity against human A549 cells assessed as reduction in cell viability measured after 48 hrs by MTT assay; type: cell-based; settings: A549, 48 h
[18] = Cytotoxicity against BAEC assessed as reduction in cell viability measured after 24 hrs by MTT assay; design: species or system Bos taurus; settings: cattle
[19] = Induction of nitric oxide release in water using Fe2+-MGD2 as nitric oxide trap at pH 6.56 measured 70 mins post UV-photolysis in dark condition by EPR spectroscopy; type: physicochemical; settings: buffer, pH 6.56, 70 min

Compound | Activity [1] [%] | Rmax (Aorta [2]) [%] | EC50 (Aorta [3]) [µM] | Rmax (Aorta [4]) [%] | inhibition (Aorta [5]) | Activity (Aorta [6]) [%] | Activity (Aorta [7]) | Activity [8] [%] | Activity (Aorta [9]) | Activity (Aorta [10]) | EC50 [11] [µM] | Activity [12] [equiv] | IC50 [13] [µM] | inhibition (INH) [14] | IC50 (A549 [15]) [µM] | IC50 (A549 [16]) [µM] | IC50 (A549 [17]) [µM] | IC10 [18] [µM] | Activity [19]
CCOP(=O)(OCC)C(C)(C)/[N+]([O-])=C/c1ccc(O)c(O)c1 | 28 | 103 | 0.0407 | 93 | Active | < 5 | inactive | < 10 | Non-toxic | inactive | 22 | 2.22 | 0.2 | Not Active | 1900 | 1900 | 1300 | 500 | 
CCOP(=O)(OCC)C(C)(C)/[N+]([O-])=C/c1ccc(O)cc1 | 18 | 99 |  |  | Active | < 5 | inactive | < 10 | Non-toxic | inactive | > 1000 | 0.65 | 60.8 | Not Active | 10500 | 12400 | 13000 | 1600 | 
CCOP(=O)(OCC)C(C)(C)/[N+]([O-])=C/c1ccccc1O | 21 | 99 |  |  |  |  |  | < 10 | Non-toxic |  | > 1000 | 0.25 | 33.5 | Not Active | 8200 | 9300 | 9000 | 1400 | 
CCOP(=O)(OCC)C(C)(C)/[N+]([O-])=C/c1cc(O)cc(O)c1 | 23 | 98 |  |  | Active | < 5 | inactive | < 10 | Non-toxic | inactive | > 1000 | 0.7 | 187 | Not Active | 4900 | 7000 | 7900 | 600 | 
CCOP(=O)(OCC)C(C)(C)/[N+]([O-])=C/c1cc(O)c(O)c(O)c1 | 29 | 104 | 0.0282 | 93 | Active | < 5 | inactive | < 10 | Non-toxic | inactive | 19 | 1.46 | 0.9 | Not Active | 600 | 600 | 700 | 200 | 
CCOP(=O)(OCC)C(C)(C)/[N+]([O-])=C/c1ccccc1C(F)(F)F |  | 104 |  |  |  |  |  |  | Non-toxic |  | > 1000 | 0.02 | 4.2 | Not Active | 2200 | 2700 | 4200 | 400 | Active
CCOP(=O)(OCC)C(C)(C)/[N+]([O-])=C/c1ccccc1[N+](=O)[O-] | 54 | 100 |  |  |  |  |  | < 10 | Non-toxic |  | > 1000 | 0.02 | 30 | Not Active | 2200 | 1400 | 1300 | < 100 | Active
CCOP(=O)(OCC)C(C)(C)/[N+]([O-])=C/c1ccc(O)c(OC)c1 | 23 | 100 | 0.0537 | 86 | Active | < 5 | inactive | < 10 | Non-toxic | inactive | 254 | 1.91 | 28.6 | Not Active | 6400 | 4300 | 3900 | 700 | 
CCOP(=O)(OCC)C(C)(C)/[N+]([O-])=C/c1c(C)cccc1C |  | 105 |  |  | Active |  |  |  | Non-toxic |  | > 1000 | 0.02 | 350 | Not Active | 4700 | 5300 | 4400 | 500 | Active
CCOP(=O)(OCC)C(C)(C)/[N+]([O-])=C/c1ccc([N+](=O)[O-])cc1 | 53 | 101 |  |  |  |  |  | < 10 | Non-toxic |  | > 1000 | 0.02 | 9.3 | Not Active | 1100 | 1000 | 1200 | < 100 | 
CCOP(=O)(OCC)C(C)(C)/[N+]([O-])=C/c1cccc(O)c1 | 26 | 99 |  |  | Active | 6 | inactive | < 10 | Non-toxic | inactive | > 1000 | 0.1 | 123 | Not Active | 7600 | 8300 | 7500 | 800 | 

— ChEMBL document CHEMBL3822454, “On the vasoprotective mechanisms underlying novel β-phosphorylated nitrones: Focus on free radical characterization, scavenging and NO-donation in a biological model of oxidative stress” (Eur J Med Chem, 2016)
